Consider eleven compounds from patent US9643968B2, “Fused acridine derivative and pharmaceutical composition, preparation method and use thereof” (Peking University, priority 2014, dated 2017).

Common to all, as to assay type: cell-based
Assay [1] has as its system HepG2 (human hepatocellular carcinoma). The assay is described as follows: MTT in vitro cytotoxicity, HepG2. The conditions noted are these: 72 hr incubation. As for the experimental part:
(§1) Materials and methods: MTT (3-[4,5-dimethylthiazol-2-yl]-diphenyl tetrazolium bromide) method was employed to determine the antiproliferative activity of all the compounds of the Examples and Contrasting Examples in vitro against selected cell lines, including HCT116 (human colon cancer cell), PC-3 (human prostate cancer), HepG2 (human hepatocellular carcinoma), SK-OV-3 (human ovarian adenocarcinoma), MCF-7 (human breast cancer), U87MG (human glioblastoma cell) cell lines.
(§2) Procedure: Human tumor cells of HCT116, PC-3, HepG2, SK-OV-3, MCF-7, and U87MG were in vitro cultured, and collected until the cells grow to the logarithmic phase. The cells were centrifuged for 5 minutes at 1000 rpm, and supernatant was discarded. Subsequently appropriate culture medium was added to suspend the precipitation, and the concentration of cells was adjusted to 3.5˜5.5×10^4/mL. the suspensions of cells were seeded in 96-well microplate at 100 μL per well, and incubated in incubator (37° C., 5% CO2) for 24 hr. The compound to test was added. For the control group, equivalent concentration of DMSO (final concentration 0.5%) was added. For each group, three copy wells were set. After incubated for 72 hr, 20 μL 5 mg/mL of MTT was added into each well, and placed at 37° C. for 3 hr. 150 μL of DMSO was added into each wells, and vibrated the shaker at 37° C. for 5 mins, then measured the absorbance (OD) value at 492 nm/620 nm. The IC50 values were calculated using Prism 5.0 software.

The test system of assay [2] is HCT116 (human colon cancer cell). The assay can be described thus: MTT in vitro cytotoxicity, HCT116. The conditions noted are these: HCT-116, 72 hr incubation. As for the experimental part:
as §1, §2

The test system of assay [3] is U87MG (human glioblastoma cell). The assay can be described thus: MTT in vitro cytotoxicity, U87MG. The conditions noted are these: U-87 MG, 72 hr incubation. The procedure:
as §1, §2

The test system of assay [4] is PC-3 (human prostate cancer). The assay is described as follows: MTT in vitro cytotoxicity, PC-3. Conditions: 72 hr incubation, read-out: IC50 PC3. The procedure:
as §1, §2

Take `Cc1ccc2nc3cccc4c3c(c2c1)C(=O)N4CCN(C)C` [Compound 2a, 2-(2-(dimethylamino)ethyl)-9-methylpyrrolo[2,3,4-kl]acridin-1-(2H)-one]: the IC50 (usually the concentration that inhibits the measured activity by half) in assay [1] was 2.83 µM; in assay [2], 1.05 µM; in assay [3] it was 2.05 µM; in assay [4] it was 3.52 µM.

On to `CN(C)CCN1C(=O)c2c3ccccc3nc3c([N+](=O)[O-])ccc1c23` [Compound 2e], for which the IC50 turned out to be 1.86 µM in assay [1], 1.34 µM in assay [2], 1.74 µM in assay [3] and 0.998 µM in assay [4].

On to `Cc1ccc2nc3cccc4c3c(c2c1)C(=O)N4CCCN(C)C` [Compound 3a, 2-(3-(dimethylamino)propyl)-9-methylpyrrolo[2,3,4-kl]acridin-1-(2H)-one], for which the IC50 in assay [1] turned out to be 2.85 µM; in assay [2], 1.38 µM; in assay [3], 2.19 µM; in assay [4] it was 8.21 µM.

Turning to `CN(C)CCCN1C(=O)c2c3cc(Cl)ccc3nc3cccc1c23` [Compound 3b, 9-chloro-2-(3-(dimethylamino)propyl)pyrrolo[2,3,4-kl]acridin-1-(2H)-one], the IC50 in assay [1] amounted to 1.47 µM; in assay [2], 1.32 µM; in assay [3], 1.58 µM; in assay [4], 2.33 µM.

With `COc1ccc2nc3cccc4c3c(c2c1)C(=O)N4CCCN(C)C` [Compound 3c, 2-(3-(dimethylamino)propyl)-9-methoxypyrrolo[2,3,4-kl]acridin-1-(2H)-one], the IC50 in assay [1] was 1.83 µM; in assay [2], 1.11 µM; in assay [3] it was 1.85 µM; in assay [4], 3.47 µM.

As for `CN(C)CCCN1C(=O)c2c3cccc(F)c3nc3cccc1c23` [Compound 3d, 2-(3-(dimethylamino)propyl)-7-fluoropyrrolo[2,3,4-kl]acridin-1-(2H)-one], the IC50 in assay [1] worked out at 2.1 µM; in assay [2], 1.49 µM; in assay [3] it was 2.36 µM; in assay [4], 4.99 µM.

With `Cc1ccc2nc3cccc4c3c(c2c1)C(=O)N4CCN1CCCCC1` [Compound 4a, 9-methyl-2-(2-(piperidin-1-yl)ethyl)pyrrolo[2,3,4-kl]acridin-1-(2H)-one], the IC50 was 2.57 µM in assay [1], 1.42 µM in assay [2], 1.33 µM in assay [3] and 4.13 µM in assay [4].

For the compound `O=C1c2c3cc(Cl)ccc3nc3cccc(c23)N1CCN1CCCCC1` [Compound 4b, 9-chloro-2-(2-(piperidin-1-yl)ethyl)pyrrolo[2,3,4-kl]acridin-1-(2H)-one], the IC50 in assay [1] was determined as 2.25 µM; in assay [2] it was 1.38 µM; in assay [3], 1.89 µM; in assay [4] it was 2.88 µM.

For the compound `COc1ccc2nc3cccc4c3c(c2c1)C(=O)N4CCN1CCCCC1` [Compound 4c, 9-methoxy-2-(2-(piperidin-1-yl)ethyl)pyrrolo[2,3,4-kl]acridin-1-(2H)-one], the IC50 in assay [1] worked out at 1.5 µM; in assay [2], 0.284 µM; in assay [3], 0.497 µM; in assay [4], 1.4 µM.

On to `O=C1c2c3cccc(F)c3nc3cccc(c23)N1CCN1CCCCC1` [Compound 4d, 7-fluoro-2-(2-(piperidin-1-yl)ethyl)pyrrolo[2,3,4-kl]acridin-1-(2H)-one], for which the IC50 was 3.58 µM in assay [1], 1.21 µM in assay [2], 1.78 µM in assay [3] and 4.7 µM in assay [4].

In the case of `COc1ccc2nc3c(C)ccc4c3c(c2c1)C(=O)N4CCN(C)C` [Compound 5c, 2-(2-(dimethylamino)ethyl)-9-methoxy-5-methylpyrrolo[2,3,4-kl]-acridin-1-(2H)-one], the IC50 in assay [1] came to 0.232 µM; in assay [2], 0.165 µM; in assay [3], 0.269 µM; in assay [4], 0.689 µM.
